What is called EC50 is the concentration giving half of the maximal effect. Higher therefore signals a need for much substance.

Test [1] concerns the target T1, hTREM2 (Homo sapiens, UniProt Q9NZC2). Put plainly: TREM2 agonist potency by Syk phosphorylation (AlphaLisa) in HEK293T-hTREM2 cells, used for Examples 306-429. In kind it is cell-based. More on the design: expressed in transfected cells; host or cells: HEK293T (HEK293T-hTREM2 cells). As to conditions: HEK293 Cells. How it is done:
In vitro Measurement of Triggering Receptor Expressed on Myeloid Cells 2 activity using cellular phosphorylation of Spleen Tyrosine Kinase (“Syk”) Assays used for Examples 306-429
Measurement of TREM2 agonist potency was done using a HEK cell line expressing human TREM2 and DAP12 (HEK293T-hTREM2 cells). Binding of small molecules to, and activation of, TREM2 increases the phosphorylation of Syk. The resultant levels of Syk phosphorylation were measured using a commercial AlphaLisa reagent kit. To perform the assay, HEK-hTREM2 cells were plated at 14,000 cells per well in a 384 well plate, in 25 μL, of complete growth media and incubated at 37° C., 5% CO2 for 20-24 hours. Prior to the assay, test compounds were diluted in the 384 well plates in assay buffer and allowed to equilibrate for 30 minutes. Growth media was removed from cell plates by inversion on blotting paper, and 25 μL of test compounds in assay buffer was added to cells. Cells were incubated for 45 minutes at room temperature. After 45 minutes, assay buffer was removed and 10 μL of lysis buffer was added. Plates were shaken for 20 minutes at 350 RPM at room temperature. After complete lysis, AlphaLisa reagents were added to the lysate, and fluourescence intensity was measured using a Perkin Elmer Envision plate reader. Intensities were used to generate a standard curve, and % activation was calculated. Curve fitting was performed using Prism v9 software, log(agonist) vs response-variable slope (four parameters), and EC50s were calculated from the curve fit.
The results presented in Table 20 have been generated with the in vitro assay described above for Examples 306-429. This assay may be used to test any of the compounds described herein to assess and characterize a compound's ability to act as an agonist of TREM2.
For orientation: Alpha assays give light when donor and acceptor beads are brought close together.

The target of test [2] is T1, hTREM2. Put plainly: TREM2 activity by cellular Syk phosphorylation (AlphaScreen/AlphaLISA) in TREM2/DAP12-HEK cells, used for Examples 1-305. In kind it is cell-based. The arrangement: expressed in transfected cells. As to conditions: HEK293 Cells. An outline of the steps:
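Single-cell-cloned HEK293 cells overexpressing TREM2 and DAP12, seeded 20 h, exposed to test articles (1% final DMSO) for 45 min at room temperature. Lysates read for phospho-Syk (Tyr525/526) vs total Syk by AlphaScreen. Signal normalised as percent of control between isotype IgG and 100 nM anti-TREM2 antibody; 4-parameter logistic fit.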

Some results are limits rather than exact numbers.

T1 sequence (Q9NZC2 19-230): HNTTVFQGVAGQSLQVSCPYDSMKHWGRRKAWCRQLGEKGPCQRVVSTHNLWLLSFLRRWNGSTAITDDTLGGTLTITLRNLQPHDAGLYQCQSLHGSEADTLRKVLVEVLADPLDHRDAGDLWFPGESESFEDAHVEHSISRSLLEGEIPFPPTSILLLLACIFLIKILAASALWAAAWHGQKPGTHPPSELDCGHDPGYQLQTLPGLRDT
T1 sequence (O43914 22-113 partner): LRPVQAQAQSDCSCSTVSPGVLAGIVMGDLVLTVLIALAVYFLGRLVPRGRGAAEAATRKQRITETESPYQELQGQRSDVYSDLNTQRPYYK

On hTREM2 [1], `Cc1nc2nc(C3CCOC(c4cnn(C5CC5)c4)C3)cc(-c3ccc(Cl)cc3F)c2nc1C` (stereo not drawn) [Example 402, 8-(4-chloro-2-fluorophenyl)-6-(2-(1-cyclopropyl-1H-pyrazol-4-yl)tetrahydro-2H-pyran-4-yl)-2,3-dimethylpyrido[2,3-b]pyrazine] registered an EC50 not above 50 nM.

The compound `Cc1cnc2c(C34CC(C(F)(F)F)(C3)C4)nc(N3C[C@H](C)O[C@@H](c4cnn(C5CC5)c4)C3)nc2n1` [Example 404, (2S,6S)-2-(1-cyclopropyl-1H-pyrazol-4-yl)-6-methyl-4-(7-methyl-4-(3-(trifluoromethyl)bicyclo[1.1.1]pentan-1-yl)pteridin-2-yl)morpholine] had an EC50 on hTREM2 [1] not above 50 nM.

The compound `Cc1cnc2c(C34CC(C(F)(F)F)(C3)C4)nc(C3CCOC(c4cnn(C5CC5)c4)C3)nc2n1` (stereo not drawn) [Example 360, 2-(2-(1-cyclopropyl-1H-pyrazol-4-yl)tetrahydro-2H-pyran-4-yl)-7-methyl-4-(3-(trifluoromethyl)bicyclo[1.1.1]pentan-1-yl)pteridine] gave a concentration for a half-maximal effect (EC50) on hTREM2 [1] not above 50 nM.

`Cc1cc(C2CN(c3cc4nc(C)c(C)nc4c(-c4ccc(C(F)(F)F)nc4)n3)CCO2)ccn1` (stereo not drawn) [Example 312, 4-(2,3-dimethyl-5-(6-(trifluoromethyl)pyridin-3-yl)pyrido[3,4-b]pyrazin-7-yl)-2-(2-methylpyridin-4-yl)morpholine] registered an EC50 on hTREM2 [1] not above 50 nM.

Compound `Cc1cc(C2CN(c3nc(-c4ccc(Cl)cc4C(F)(F)F)c4nc(C)c(C)nc4n3)CCO2)ccn1` (stereo not drawn) [Example 343, 4-(4-(4-chloro-2-(trifluoromethyl)phenyl)-6,7-dimethylpteridin-2-yl)-2-(2-methylpyridin-4-yl)morpholine] gave an EC50 at hTREM2 [1] of 50 to 500 nM.

`Cc1cnc2c(C34CC(C(F)(F)F)(C3)C4)nc(N3C[C@H](C)O[C@@H](c4cnn(C5CC5)c4)C3)nc2n1` (racemic) [Example 355, 2-(1-cyclopropyl-1H-pyrazol-4-yl)-6-methyl-4-(7-methyl-4-(3-(trifluoromethyl)bicyclo[1.1.1]pentan-1-yl)pteridin-2-yl)morpholine] came in with a concentration for a half-maximal effect (EC50) at hTREM2 [1] of 50 to 500 nM.

On hTREM2 [1], `Cc1cc(C2CC(c3cc4nc(C)c(C)cc4c(-c4ccc(F)cc4F)n3)CCO2)ccn1` (stereo not drawn) [Example 328, 5-(2,4-difluorophenyl)-2,3-dimethyl-7-(2-(2-methylpyridin-4-yl)tetrahydro-2H-pyran-4-yl)-1,6-naphthyridine] came in with a 50% effective concentration (EC50) not above 50 nM.

In turn, `Cc1nc2nc(N3C[C@@H](C)O[C@@H](c4cnn(C5CC5)c4)C3)nc(-c3ccc(F)cc3F)c2nc1C` [Example 427, (2S,6R)-2-(1-cyclopropyl-1H-pyrazol-4-yl)-4-(4-(2,4-difluorophenyl)-6,7-dimethylpteridin-2-yl)-6-methylmorpholine] registered an EC50 at hTREM2 [1] not above 50 nM.

On hTREM2 [1], `COc1cc(C2CN(c3nc(-c4ccc(Cl)cc4F)c4nc(C)c(C)nc4n3)CCO2)ccn1` (stereo not drawn) [Example 314, 4-(4-(4-chloro-2-fluorophenyl)-6,7-dimethylpteridin-2-yl)-2-(2-methoxypyridin-4-yl)morpholine] returned a concentration for a half-maximal effect (EC50) not above 50 nM.

`Cc1cc([C@H]2C[C@@H](c3nc(-c4ccc(Cl)cc4F)c4ccc(C)nc4n3)CCO2)ccn1` (racemic) [Example 325, 4-(4-chloro-2-fluorophenyl)-7-methyl-2-(2-(2-methylpyridin-4-yl)tetrahydro-2H-pyran-4-yl)pyrido[2,3-d]pyrimidine] gave an EC50 on hTREM2 [1] not above 50 nM.

Take `Cc1cnc2c(C34CC(C(F)(F)F)(C3)C4)nc(N3C[C@@H](C)O[C@H](c4cnn(C5CC5)c4)C3)nc2n1` [Example 405, (2R,6R)-2-(1-cyclopropyl-1H-pyrazol-4-yl)-6-methyl-4-(7-methyl-4-(3-(trifluoromethyl)bicyclo[1.1.1]pentan-1-yl)pteridin-2-yl)morpholine]: the EC50 at hTREM2 [1] was 50 to 500 nM.

As for `Cc1cc([C@H]2C[C@H](c3cc4nc(C)c(C)cc4c(-c4ccc(F)cc4F)n3)CCO2)ccn1` (racemic) [Example 400, 5-(2,4-difluorophenyl)-2,3-dimethyl-7-[2-(2-methyl-4-pyridyl)tetrahydropyran-4-yl]-1,6-naphthyridine], the EC50 at hTREM2 [1] is not above 50 nM.

`COc1cc(C2CN(c3nc(-c4ccc(C(F)(F)F)nc4)c4nc(C)c(C)nc4n3)CCO2)ccn1` (stereo not drawn) [Example 322, 4-(6,7-dimethyl-4-(6-(trifluoromethyl)pyridin-3-yl)pteridin-2-yl)-2-(2-methoxypyridin-4-yl)morpholine] yielded a half-maximal effective concentration (EC50) at hTREM2 [1] not above 50 nM.

For the compound `Cc1nc2nc(N3C[C@@H](C)O[C@@H](c4cnn(C5CC5)c4)C3)nc(C34CC(C(F)(F)F)(C3)C4)c2nc1C` [Example 411, (2S,6R)-2-(1-cyclopropyl-1H-pyrazol-4-yl)-4-(6,7-dimethyl-4-(3-(trifluoromethyl)bicyclo[1.1.1]pentan-1-yl)pteridin-2-yl)-6-methylmorpholine], at hTREM2 [1], the EC50 is not above 50 nM.

With `Cc1ccc2c(C3CCC(F)(F)CC3)nc(N3CCO[C@@H](c4cnn(C5CC5)c4)C3)nc2n1` [Example 143, 2-((2S)-2-(1-cyclopropyl-1H-pyrazol-4-yl)-4-morpholinyl)-4-(4,4-difluorocyclohexyl)-7-methylpyrido [2,3-d]pyrimidine], at hTREM2 [2], the EC50 lay within 50 to 500 nM; the “hTREM2 Emax” value was “+++ (Emax>150 and ≤250)”.

For the compound `Cc1nc2nc(N3CCO[C@@H](c4cnn(C)c4)C3)nc([C@H]3C[C@@H](C(F)F)C3)c2nc1C` [Example 44, 4-(cis-3-(difluoromethyl)cyclobutyl)-6,7-dimethyl-2-((2S)-2-(1-methyl-1H-pyrazol-4-yl)-4-morpholinyl)pteridine], on hTREM2 [2], the EC50 is 50 to 500 nM; the “hTREM2 Emax” value was “+++ (Emax>150 and ≤250)”.

With `Cc1cc([C@H]2CN(c3nc(-c4ccc(Cl)cc4F)c4nc(C)c(C)nc4n3)CCO2)ccn1` [Example 23, 4-(4-chloro-2-fluorophenyl)-6,7-dimethyl-2-((2S)-2-(2-methyl-4-pyridinyl)-4-morpholinyl)pteridine], on hTREM2 [2], the half-maximal effective concentration (EC50) is not above 50 nM and the “hTREM2 Emax” value was “++++ (Emax>250)”.

On to `Cc1cnc2c(-c3ccc(Cl)cc3F)nc(N3CCO[C@@H](c4cnn(C5CC5)c4)C3)cc2n1` [Example 76, 5-(4-chloro-2-fluorophenyl)-7-((2S)-2-(1-cyclopropyl-1H-pyrazol-4-yl)-4-morpholinyl)-2-methylpyrido[3,4-b]pyrazine], for which, on hTREM2 [2], the EC50 was 50 to 500 nM and the “hTREM2 Emax” value is listed as “++++ (Emax>250)”.

With `Cc1nc2nc(N3CCO[C@@H](c4cnn(C)c4)C3)nc(N3CCC(F)(F)CC3)c2nc1C` [Example 66, 4-(4,4-difluoro-1-piperidinyl)-6,7-dimethyl-2-((2S)-2-(1-methyl-1H-pyrazol-4-yl)-4-morpholinyl)pteridine], on hTREM2 [2], the EC50 fell in the range of 500 to 3000 nM.

In the case of `Cc1cc([C@H]2C[C@@H](c3nc(-c4ccc(Cl)cc4F)c4ncc(C)nc4n3)CCO2)ccn1` (single isomer, unassigned) [Example 171], on hTREM2 [2], the EC50 was not above 50 nM; the “hTREM2 Emax” value was “+++ (Emax>150 and ≤250)”.

In the case of `Cc1ccc(-c2nc(N3CCO[C@@H](c4cnn(C)c4)C3)nc3nc(C)c(C)nc23)cn1` [Example 20, 6,7-dimethyl-2-((2S)-2-(1-methyl-1H-pyrazol-4-yl)-4-morpholinyl)-4-(6-methyl-3-pyridinyl)pteridine], at hTREM2 [2], the EC50 lay within 500 to 3000 nM; the “hTREM2 Emax” value was “+++ (Emax>150 and ≤250)”.

The values are drawn from patent US11884675B2, “Heterocyclic compounds as triggering receptor expressed on myeloid cells 2 agonists and methods of use” (AMGEN INC., priority 2020, dated 2024).
